Measured values as given in article PMC8224038, “Anti-Leukemic Properties of Aplysinopsin Derivative EE-84 Alone and Combined to BH3 Mimetic A-1210477” (Marine Drugs, 2021).

Assays:
Format in all cases: cell-based, human
RPMI 1788 = assay: Trypan blue exclusion test, proliferation (GI50) in noncancerous cells; conditions: Homo sapiens
Method: (§1) Cell proliferation and viability were assessed by the trypan blue exclusion method (Lonza), and viable cells were counted using a hematocytometer (Marienfeld, Lauda-Königshofen, Germany). Differential toxicity was calculated by comparing the viability of RPMI 1788 cells to the viability of cancer cells (normal/cancer cells). The difference in viability was expressed in terms of fold change.

K562 cells = assay: Hoechst/PI staining by fluorescent microscopy; conditions: K562, 50 μM, 72 h
Text: The percentage of apoptotic cells was quantified as the fraction of cells showing fragmented nuclei, as assessed by fluorescence microscopy (Nikon, Tokyo, Japan) after staining with Hoechst 33342 (Sigma-Aldrich) and propidium iodide (Sigma-Aldrich). In addition, apoptosis was confirmed by Annexin V APC (Biolegend, 640919)/propidium iodide (BD Biosciences, 556547) staining and fluorescence-activated cell sorter (FACS) analysis according to the manufacturer protocol (BD Biosciences, 556547).

PBMCs = assay: Toxicity test in nonproliferating and proliferating PBMCs (trypan blue); conditions: 24, 48, 72 h
Method: Peripheral blood mononuclear cells (PBMCs) were isolated by density gradient centrifugation using Ficoll-Hypaque (GE Healthcare, Roosendaal, The Netherlands) from freshly collected buffy coats as previously described, obtained from healthy adult human volunteers (Red Cross, Luxembourg City, Luxembourg) after ethical approval as well as written informed consent from each volunteer. After isolation, cells were incubated overnight at 2 × 10^6 cells/mL in RPMI 1640 (supplemented with 1% antibiotic–antimycotic and 10% FCS (BioWhittaker, Verviers, Belgium) at 37 °C and 5% CO2 in a humidified atmosphere. The day after, cell concentration was adjusted at 1 × 10^6 cells/mL using the same fresh complete medium and then treated as indicated.
as §1

K562 = assay: Methocult colony formation assay; conditions: K562, 48-h pretreatment
Method: For 48 h pretreatment of EE-84 colony formation assays, approximately 3 × 10^5 cells were seeded in each well of a 24-well plate, treated with EE-84 at indicated concentrations, and incubated at 37 °C and 5% of CO2 in a humidified atmosphere for 48 h. After 48 h, 1000 cells were counted and grown in a semisolid methylcellulose medium (Methocult H4230, StemCell Technologies Inc., Vancouver, BC, Canada) supplemented with 10% FBS. Colonies were detected after 10 days of culture by adding 1 mg/mL of 3-(4,5-dimethylthiazol-2-yl)-2,5-diphenyltetrazolium bromide (MTT) reagent (Sigma-Aldrich) and were analyzed by Image J 1.8.0 software (U.S. National Institute of Health, Bethesda, MD, USA).

## COc1ccc2c(c1)c(C(=O)C(=O)Nc1sc3c(c1C(C)=O)CC(C)CC3)cn2Cc1ccccc1 (stereo not drawn) [EE-84, N-(3-Acetyl-4,5,6,7-Tetrahydro-5-Methylbenzo[b]Thiophen-2-yl)-2-(1-Benzyl-5-Methoxy-1H-Indol-3-yl)-2-Oxoacetamide]
RPMI 1788; RPMI 1788, 24 h
  GI50: > 50 µM
RPMI 1788; RPMI 1788, 48 h
  GI50: > 50 µM
RPMI 1788; RPMI 1788, 72 h
  GI50: 40.1 ± 3.79 µM
K562 cells
  propidium iodide (PI)-positive cells without nuclear fragmentation: 11.0 ± 4.23%
PBMCs
  toxic effects in nonproliferating and proliferating PBMCs: did not induce toxic effects
K562
  total surface area and average size of colonies: reduced
